Results reported in PubChem BioAssay (NCI).
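How tested: cells in 96-well plates exposed to compound for 48 hours at five concentrations. Here, GI50 denotes the concentration required for 50% inhibition of growth. TGI marks complete inhibition of growth.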

Key:
Assay in all cases: growth of human tumour cells (NCI), 48 h; in the data active = GI50 below about 0.43 µM; inactive = the rest
NCI-H23 lung = system: NCI-H23 lung
NCI-H522 lung = system: NCI-H522 lung
NCI-H226 lung = system: NCI-H226 lung
MCF7 breast = system: MCF7 breast
BT-549 breast = system: BT-549 breast
IGROV1 ovarian = system: IGROV1 ovarian
SK-MEL-28 melanoma = system: SK-MEL-28 melanoma
SW-620 colon = system: SW-620 colon
DU-145 prostate = system: DU-145 prostate
NCI/ADR-RES ovarian = system: NCI/ADR-RES ovarian
MDA-MB-435 = system: MDA-MB-435
U251 CNS = system: U251 CNS
RPMI-8226 leukemia = system: RPMI-8226 leukemia
SN12C renal = system: SN12C renal
OVCAR-5 ovarian = system: OVCAR-5 ovarian
MDA-MB-231 breast = system: MDA-MB-231 breast
KM12 colon = system: KM12 colon
786-0 renal = system: 786-0 renal
HCC-2998 colon = system: HCC-2998 colon
EKVX NSCLC = system: EKVX NSCLC
TK-10 renal = system: TK-10 renal
T-47D breast = system: T-47D breast
A549 NSCLC = system: A549 NSCLC
LOX IMVI melanoma = system: LOX IMVI melanoma
SF-295 CNS = system: SF-295 CNS
SK-MEL-2 melanoma = system: SK-MEL-2 melanoma
MOLT-4 leukemia = system: MOLT-4 leukemia
OVCAR-8 ovarian = system: OVCAR-8 ovarian
OVCAR-4 ovarian = system: OVCAR-4 ovarian
HCT-116 colon = system: HCT-116 colon
COLO 205 colon = system: COLO 205 colon
UO-31 renal = system: UO-31 renal
HOP-92 NSCLC = system: HOP-92 NSCLC
NCI-H460 lung = system: NCI-H460 lung
M14 melanoma = system: M14 melanoma
SNB-19 CNS = system: SNB-19 CNS
CAKI-1 renal = system: CAKI-1 renal
SK-MEL-5 melanoma = system: SK-MEL-5 melanoma
SF-268 CNS = system: SF-268 CNS
SNB-75 CNS = system: SNB-75 CNS
HS 578T breast = system: HS 578T breast
HT29 colon = system: HT29 colon
RXF 393 renal = system: RXF 393 renal
MALME-3M melanoma = system: MALME-3M melanoma
PC-3 prostate = system: PC-3 prostate
OVCAR-3 ovarian = system: OVCAR-3 ovarian
SK-OV-3 ovarian = system: SK-OV-3 ovarian
K-562 leukemia = system: K-562 leukemia
ACHN renal = system: ACHN renal
HCT-15 colon = system: HCT-15 colon
SR leukemia = system: SR leukemia
UACC-62 melanoma = system: UACC-62 melanoma
HOP-62 NSCLC = system: HOP-62 NSCLC
SF-539 CNS = system: SF-539 CNS
HL-60(TB) leukemia = system: HL-60(TB) leukemia

COC(=O)COc1ccc(/C=C2\N=C(c3ccccc3)N(c3cc(C(F)(F)F)ccc3Cl)C2=O)cc1
94.2 µM: TGI (BT-549 breast)
53.3 µM: TGI (LOX IMVI melanoma)
68.8 µM: TGI (NCI-H522 lung)
46.1 µM: TGI (RPMI-8226 leukemia)
69.1 µM: TGI (MOLT-4 leukemia)
54.9 µM: TGI (SR leukemia)
63.4 µM: TGI (HL-60(TB) leukemia)
inactive: GI50 (NCI-H23 lung) > 100 µM | GI50 (NCI-H522 lung) 24.1 µM | GI50 (NCI-H226 lung) 52.2 µM | GI50 (MCF7 breast) 59.8 µM | GI50 (BT-549 breast) 28.1 µM | GI50 (IGROV1 ovarian) 29.1 µM | GI50 (SK-MEL-28 melanoma) > 100 µM | GI50 (SW-620 colon) 62.1 µM | GI50 (DU-145 prostate) 51.5 µM | GI50 (NCI/ADR-RES ovarian) 52.6 µM | GI50 (MDA-MB-435) 50.3 µM | GI50 (U251 CNS) 46.4 µM | GI50 (RPMI-8226 leukemia) 19 µM | GI50 (SN12C renal) > 100 µM | GI50 (OVCAR-5 ovarian) > 100 µM | GI50 (MDA-MB-231 breast) > 100 µM | GI50 (KM12 colon) 42.3 µM | GI50 (786-0 renal) > 100 µM | GI50 (HCC-2998 colon) 64 µM | GI50 (EKVX NSCLC) > 100 µM | GI50 (TK-10 renal) > 100 µM | GI50 (T-47D breast) 82.9 µM | GI50 (A549 NSCLC) > 100 µM | GI50 (LOX IMVI melanoma) 21.8 µM | GI50 (SF-295 CNS) > 100 µM | GI50 (SK-MEL-2 melanoma) 83.5 µM | GI50 (MOLT-4 leukemia) 28.6 µM | GI50 (OVCAR-8 ovarian) 40.4 µM | GI50 (OVCAR-4 ovarian) 54.8 µM | GI50 (HCT-116 colon) 38.4 µM | GI50 (COLO 205 colon) 54.4 µM | GI50 (UO-31 renal) 27.1 µM | GI50 (HOP-92 NSCLC) 75.9 µM | GI50 (NCI-H460 lung) > 100 µM | GI50 (M14 melanoma) 50.6 µM | GI50 (SNB-19 CNS) 83.8 µM | GI50 (CAKI-1 renal) > 100 µM | GI50 (SK-MEL-5 melanoma) 46.1 µM | GI50 (SF-268 CNS) 48.4 µM | GI50 (SNB-75 CNS) 76.6 µM | GI50 (HS 578T breast) 83.7 µM | GI50 (HT29 colon) 97.1 µM | GI50 (RXF 393 renal) > 100 µM | GI50 (MALME-3M melanoma) 54.1 µM | GI50 (PC-3 prostate) 44.8 µM | GI50 (OVCAR-3 ovarian) 26.1 µM | GI50 (SK-OV-3 ovarian) > 100 µM | GI50 (K-562 leukemia) 47.3 µM | GI50 (ACHN renal) > 100 µM | GI50 (HCT-15 colon) 94.6 µM | GI50 (SR leukemia) 19.3 µM | GI50 (UACC-62 melanoma) > 100 µM | GI50 (HOP-62 NSCLC) 64.9 µM | GI50 (SF-539 CNS) 36 µM | GI50 (HL-60(TB) leukemia) 27.3 µM
> 100 µM: TGI (NCI-H23 lung) | TGI (NCI-H226 lung) | TGI (MCF7 breast) | TGI (IGROV1 ovarian) | TGI (SK-MEL-28 melanoma) | TGI (SW-620 colon) | TGI (DU-145 prostate) | TGI (NCI/ADR-RES ovarian) | TGI (MDA-MB-435) | TGI (U251 CNS) | TGI (SN12C renal) | TGI (OVCAR-5 ovarian) | TGI (MDA-MB-231 breast) | TGI (KM12 colon) | TGI (786-0 renal) | TGI (HCC-2998 colon) | TGI (EKVX NSCLC) | TGI (TK-10 renal) | TGI (T-47D breast) | TGI (A549 NSCLC) | TGI (SF-295 CNS) | TGI (SK-MEL-2 melanoma) | TGI (OVCAR-8 ovarian) | TGI (OVCAR-4 ovarian) | TGI (HCT-116 colon) | TGI (COLO 205 colon) | TGI (UO-31 renal) | TGI (HOP-92 NSCLC) | TGI (NCI-H460 lung) | TGI (M14 melanoma) | TGI (SNB-19 CNS) | TGI (CAKI-1 renal) | TGI (SK-MEL-5 melanoma) | TGI (SF-268 CNS) | TGI (SNB-75 CNS) | TGI (HS 578T breast) | TGI (HT29 colon) | TGI (RXF 393 renal) | TGI (MALME-3M melanoma) | TGI (PC-3 prostate) | TGI (SK-OV-3 ovarian) | TGI (K-562 leukemia) | TGI (ACHN renal) | TGI (HCT-15 colon) | TGI (UACC-62 melanoma) | TGI (HOP-62 NSCLC) | TGI (SF-539 CNS)
96.8 µM: TGI (OVCAR-3 ovarian)
